Laboratory results from PubChem BioAssay AID330 (DTP/NCI, 2004).
“And” between values parts separate entries of the source, which are not always exact repeats. Equal values may be shown once. Toxic doses and inconclusive results are not listed. How the source made its calls: active means survival T/C of 150% or more; inactive means T/C below 125% in these data.

Tested on: P388 leukemia ip, CD2F1 mice, survival T/C
Experiment: NCI In Vivo Anticancer Drug Screen. Data for tumor model P388 Leukemia (intraperitoneal) in CD2F1 (CDF1) mice
Conditions: endpoint: median survival time, higher = longer survival
Method in brief: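 Mice carrying the transplanted tumor received test compound or vehicle. Survival was recorded in each group, and the value is the treated-group measurement divided by that of the vehicle-treated control group.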

[1] = dose: 25.0 mg/kg/injection, schedule: Q01DX005 (ip), vehicle: Klucel (hydroxypropylcellulose) (HPC)
[2] = dose: 50.0 mg/kg/injection, schedule: Q01DX005 (ip), vehicle: Klucel (hydroxypropylcellulose) (HPC)
[3] = dose: 100.0 mg/kg/injection, schedule: Q01DX005 (ip), vehicle: Klucel (hydroxypropylcellulose) (HPC)
[4] = dose: 200.0 mg/kg/injection, schedule: Q01DX005 (ip), vehicle: Klucel (hydroxypropylcellulose) (HPC)
[5] = dose: 25.0 mg/kg/injection, schedule: Q01DX005 (ip), vehicle: saline
[6] = dose: 50.0 mg/kg/injection, schedule: Q01DX005 (ip), vehicle: saline
[7] = dose: 100.0 mg/kg/injection, schedule: Q01DX005 (ip), vehicle: saline
[8] = dose: 200.0 mg/kg/injection, schedule: Q01DX005 (ip), vehicle: saline
[9] = dose: 100.0 mg/kg/injection, schedule: Q04DX003 (ip), vehicle: Klucel (hydroxypropylcellulose) (HPC)
[10] = dose: 200.0 mg/kg/injection, schedule: Q04DX003 (ip), vehicle: Klucel (hydroxypropylcellulose) (HPC)
[11] = dose: 400.0 mg/kg/injection, schedule: Q04DX003 (ip), vehicle: Klucel (hydroxypropylcellulose) (HPC)

Measured: T/C

CCCCN(CCCC)CCCNC(c1ccc(N(C)C)cc1)c1ccc(N(C)C)cc1
inactive: [1] 98 % of control | [2] 104 % of control | [3] 98 % of control | [4] 102 % of control

CNc1ccc([N+](=O)[O-])cc1/C([O-])=C\[S+](C)(C)=O
inactive: dose: 100.0 mg/kg/injection, schedule: Q04DX003 (ip), vehicle: saline 97 % of control | dose: 200.0 mg/kg/injection, schedule: Q04DX003 (ip), vehicle: saline 106 % of control | dose: 400.0 mg/kg/injection, schedule: Q04DX003 (ip), vehicle: saline 97 % of control

C=CC(=NC(C)C)Nc1ccccc1
inactive: dose: 1.56 mg/kg/injection, schedule: Q01DX009 (ip), vehicle: saline 112 % of control | dose: 3.12 mg/kg/injection, schedule: Q01DX009 (ip), vehicle: saline 105 % of control | dose: 6.25 mg/kg/injection, schedule: Q01DX009 (ip), vehicle: saline 104 % of control and 113 % of control

CS(C)(=O)=NS(=O)(=O)c1ccc([N+](=O)[O-])cc1
inactive: dose: 100.0 mg/kg/injection, schedule: Q04DX002 (ip), vehicle: Klucel (hydroxypropylcellulose) (HPC) 100 % of control | dose: 200.0 mg/kg/injection, schedule: Q04DX002 (ip), vehicle: Klucel (hydroxypropylcellulose) (HPC) 95 % of control | dose: 400.0 mg/kg/injection, schedule: Q04DX002 (ip), vehicle: Klucel (hydroxypropylcellulose) (HPC) 96 % of control

CCCN(CCNc1cc(OC)cc2cccnc12)C(C)C
inactive: dose: 12.5 mg/kg/injection, schedule: Q01DX005 (ip), vehicle: saline 107 % of control | [5] 107 % of control | [6] 106 % of control and 88 % of control

NC(CCC(=O)NCC(=O)O)C(=O)O (stereo not given)
inactive: [6] 94 % of control | [7] 104 % of control | [8] 102 % of control

COc1c(O)c(OC)c2oc3ccccc3c(=O)c2c1OC
inactive: dose: 2.5 mg/kg/injection, schedule: Q01DX009 (ip), vehicle: saline + alcohol 100 % of control | dose: 5.0 mg/kg/injection, schedule: Q01DX009 (ip), vehicle: saline + alcohol 101 % of control | dose: 10.0 mg/kg/injection, schedule: Q01DX009 (ip), vehicle: saline + alcohol 100 % of control

COC(=O)C1=[N+]([O-])c2ccccc2C1C(O)C(=O)OC (stereo not given)
inactive: dose: 60.0 mg/kg/injection, schedule: Q01DX005 (ip), vehicle: saline with Tween-80 98 % of control | dose: 120.0 mg/kg/injection, schedule: Q01DX005 (ip), vehicle: saline with Tween-80 93 % of control | dose: 240.0 mg/kg/injection, schedule: Q01DX005 (ip), vehicle: saline with Tween-80 98 % of control

Cn1cnc2cc(N3CCOCC3)c([N+](=O)[O-])cc2c1=O
inactive: [9] 105 % of control | [10] 112 % of control | [11] 95 % of control

NC(=O)c1ccc[n+](CCC[n+]2cccc(C(N)=O)c2)c1
inactive: dose: 60.0 mg/kg/injection, schedule: Q01DX005 (ip), vehicle: saline 103 % of control | dose: 120.0 mg/kg/injection, schedule: Q01DX005 (ip), vehicle: saline 101 % of control | dose: 240.0 mg/kg/injection, schedule: Q01DX005 (ip), vehicle: saline 99 % of control

O/N=C\C(=N/O)c1ccc(O)c(O)c1
inactive: dose: 100.0 mg/kg/injection, schedule: Q04DX002 (ip), vehicle: saline with Tween-80 107 % of control | dose: 200.0 mg/kg/injection, schedule: Q04DX002 (ip), vehicle: saline with Tween-80 108 % of control | dose: 400.0 mg/kg/injection, schedule: Q04DX002 (ip), vehicle: saline with Tween-80 102 % of control

O=C(c1ccccc1)C(c1ccccc1)n1ncc2c1CCOC2 (stereo not given)
inactive: [9] 105 % of control | [10] 96 % of control | [11] 108 % of control

O=C1C2C3C=CC(O3)C2C(=O)N1CCN1CCCCC1 (stereo not given)
inactive: dose: 50.0 mg/kg/injection, schedule: Q01DX005 (ip), vehicle: other 97 % of control | dose: 100.0 mg/kg/injection, schedule: Q01DX005 (ip), vehicle: other 91 % of control

c1cc(C2CCOCC2)ccn1
inactive: dose: 12.5 mg/kg/injection, schedule: Q01DX009 (ip), vehicle: saline with Tween-80 100 % of control | dose: 12.5 mg/kg/injection, schedule: Q04DX003 (ip), vehicle: saline with Tween-80 100 % of control | dose: 25.0 mg/kg/injection, schedule: Q01DX009 (ip), vehicle: saline with Tween-80 90 % of control | dose: 25.0 mg/kg/injection, schedule: Q04DX003 (ip), vehicle: saline with Tween-80 100 % of control | dose: 50.0 mg/kg/injection, schedule: Q01DX009 (ip), vehicle: saline with Tween-80 100 % of control | dose: 50.0 mg/kg/injection, schedule: Q04DX003 (ip), vehicle: saline with Tween-80 95 % of control

O=C1/C(=C/c2ccc(/C=C3\CCc4ccccc4C3=O)cc2)CCc2ccccc21
inactive: dose: 50.0 mg/kg/injection, schedule: Q01DX009 (ip), vehicle: Klucel (hydroxypropylcellulose) (HPC) 102 % of control | dose: 100.0 mg/kg/injection, schedule: Q01DX009 (ip), vehicle: Klucel (hydroxypropylcellulose) (HPC) 99 % of control | dose: 200.0 mg/kg/injection, schedule: Q01DX009 (ip), vehicle: Klucel (hydroxypropylcellulose) (HPC) 101 % of control

Nc1ccc2[se]nc3c2c1C(=O)c1ccccc1-3
inactive: dose: 6.25 mg/kg/injection, schedule: Q01DX005 (ip), vehicle: Klucel (hydroxypropylcellulose) (HPC) 98 % of control | dose: 12.5 mg/kg/injection, schedule: Q01DX005 (ip), vehicle: Klucel (hydroxypropylcellulose) (HPC) 98 % of control | [1] 101 % of control

O=C(N=Nc1c(O)[nH]c2ccccc12)C(F)(F)F
inactive: dose: 50.0 mg/kg/injection, schedule: Q01DX005 (ip), vehicle: saline with Tween-80 108 % of control | dose: 100.0 mg/kg/injection, schedule: Q01DX005 (ip), vehicle: saline with Tween-80 101 % of control | dose: 200.0 mg/kg/injection, schedule: Q01DX005 (ip), vehicle: saline with Tween-80 108 % of control

CC(=O)C1OC1c1ccccn1 (stereo not given)
inactive: [5] 102 % of control | dose: 25.0 mg/kg/injection, schedule: Q01DX005 (ip), vehicle: suspension in saline 103 % of control | [6] 102 % of control | dose: 50.0 mg/kg/injection, schedule: Q01DX005 (ip), vehicle: suspension in saline 100 % of control | [7] 104 % of control | dose: 100.0 mg/kg/injection, schedule: Q01DX005 (ip), vehicle: suspension in saline 110 % of control | [8] 102 % of control | dose: 200.0 mg/kg/injection, schedule: Q01DX005 (ip), vehicle: suspension in saline 100 % of control

c1cnc2c(c1)ccc1ncccc12
inactive: [2] 104 % of control | [3] 95 % of control | [4] 97 % of control
